Columns and labels:
Homo sapiens [1] = species: Homo sapiens; assay: Inhibition of human Ros V2262A mutant (1883 to end residues) using KKKSPGEYVNIEFG as substrate measured after 40 mins in presence of [gamma33P]ATP by scintillation counting method; parameters: scale not given: the % may be the effect or the level left
[2] = Hepatotoxicity in nude BALB/c mouse at 80 mg/kg, po administered once daily for 4 weeks measured post-last dose by hematoxylin and eosin staining-based assay; format: toxicity, organism-based; conditions: in vivo, 672 h
[3] = biological target: Serine/threonine-protein kinase 25 (Homo sapiens) (UniProt O00506); assay: Inhibition of human STK25 (1 to 308 residues) using RLGRDKYKTLRQIRQ as substrate measured after 40 mins in presence of [gamma33P]ATP by scintillation counting method; parameters: scale not given: the % may be the effect or the level left
[4] = biological target: STE20-like serine/threonine-protein kinase (Homo sapiens) (UniProt Q9H2G2); assay: Inhibition of human SLK (1 to 373 residues) using RLGRDKYKTLRQIRQ as substrate measured after 40 mins in presence of [gamma33P]ATP by scintillation counting method; parameters: scale not given: the % may be the effect or the level left
[5] = biological target: Serine/threonine-protein kinase PLK3 (Homo sapiens) (UniProt Q9H4B4); assay: Inhibition of recombinant human Plk3 (19 to 301 residues) assessed as residual activity at 10 uM using casein as substrate measured after 40 mins in presence of [gamma33P]ATP by scintillation counting method
Chain of Serine/threonine-protein kinase PLK3 (Homo sapiens) (Q9H4B4 whole entry, looked up, the tested form may be a part): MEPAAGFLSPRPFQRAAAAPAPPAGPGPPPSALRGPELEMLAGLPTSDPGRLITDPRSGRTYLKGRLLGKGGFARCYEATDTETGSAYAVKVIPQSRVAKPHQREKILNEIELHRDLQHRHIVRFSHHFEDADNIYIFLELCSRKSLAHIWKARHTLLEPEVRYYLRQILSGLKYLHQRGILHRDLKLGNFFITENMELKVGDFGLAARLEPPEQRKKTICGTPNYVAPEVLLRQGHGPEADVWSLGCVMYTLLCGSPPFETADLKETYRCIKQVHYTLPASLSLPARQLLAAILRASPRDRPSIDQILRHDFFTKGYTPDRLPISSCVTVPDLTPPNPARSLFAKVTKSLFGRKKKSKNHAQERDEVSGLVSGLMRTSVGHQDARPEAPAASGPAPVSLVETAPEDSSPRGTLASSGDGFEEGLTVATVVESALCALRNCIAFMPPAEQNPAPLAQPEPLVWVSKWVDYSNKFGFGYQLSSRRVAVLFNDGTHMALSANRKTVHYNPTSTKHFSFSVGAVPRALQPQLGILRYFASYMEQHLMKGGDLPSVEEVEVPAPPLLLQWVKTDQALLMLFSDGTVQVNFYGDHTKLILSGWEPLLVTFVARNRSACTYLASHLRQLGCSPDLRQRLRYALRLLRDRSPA

[6] = biological target: Ephrin type-B receptor 3 (Homo sapiens) (UniProt P54753); assay: Inhibition of recombinant human EphB3 (599 to 920 residues) assessed as residual activity at 10 uM using poly (Glu, Tyr) 4:1 as substrate measured after 40 mins in presence of [gamma33P]ATP by scintillation counting method
Chain of Ephrin type-B receptor 3 (Homo sapiens) (P54753 whole entry, the tested form may be a part): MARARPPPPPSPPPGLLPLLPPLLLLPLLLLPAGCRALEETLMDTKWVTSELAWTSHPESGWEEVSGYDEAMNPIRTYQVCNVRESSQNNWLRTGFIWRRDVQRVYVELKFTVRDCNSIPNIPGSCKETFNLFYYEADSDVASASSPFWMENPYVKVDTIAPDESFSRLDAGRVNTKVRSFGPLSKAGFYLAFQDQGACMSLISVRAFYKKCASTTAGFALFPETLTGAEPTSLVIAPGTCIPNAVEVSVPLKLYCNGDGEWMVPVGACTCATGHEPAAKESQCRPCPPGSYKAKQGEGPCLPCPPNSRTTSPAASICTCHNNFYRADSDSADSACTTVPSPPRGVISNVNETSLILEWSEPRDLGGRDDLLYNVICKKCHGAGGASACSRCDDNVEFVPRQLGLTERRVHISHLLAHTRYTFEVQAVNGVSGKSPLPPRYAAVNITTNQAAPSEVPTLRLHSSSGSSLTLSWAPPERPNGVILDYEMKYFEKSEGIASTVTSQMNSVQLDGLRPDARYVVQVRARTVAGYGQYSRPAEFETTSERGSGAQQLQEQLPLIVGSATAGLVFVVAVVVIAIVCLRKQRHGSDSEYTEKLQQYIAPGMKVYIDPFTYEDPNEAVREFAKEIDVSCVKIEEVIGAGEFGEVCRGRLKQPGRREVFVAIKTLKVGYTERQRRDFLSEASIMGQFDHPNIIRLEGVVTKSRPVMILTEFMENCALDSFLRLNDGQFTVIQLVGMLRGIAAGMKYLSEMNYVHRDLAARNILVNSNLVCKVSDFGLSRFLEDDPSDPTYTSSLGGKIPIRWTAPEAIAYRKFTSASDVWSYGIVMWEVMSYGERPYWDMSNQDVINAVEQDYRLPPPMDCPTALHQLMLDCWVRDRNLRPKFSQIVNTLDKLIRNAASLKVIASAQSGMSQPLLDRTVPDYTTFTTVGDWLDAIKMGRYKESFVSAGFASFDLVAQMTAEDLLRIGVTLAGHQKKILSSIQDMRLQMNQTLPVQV

[7] = biological target: Casein kinase II subunit alpha (Homo sapiens) (UniProt P68400); assay: Inhibition of recombinant full length human CK2alpha2 assessed as residual activity at 10 uM using RRRDDDSDDD as substrate measured after 40 mins in presence of [gamma33P]ATP by scintillation counting method
[8] = biological target: Homeodomain-interacting protein kinase 4 (Homo sapiens) (UniProt Q8NE63); assay: Inhibition of recombinant full-length human HIPK4 assessed as residual activity at 10 uM using RRRFRPASPLRGPPK as substrate measured after 40 mins in presence of [gamma33P]ATP by scintillation counting method
Chain of Homeodomain-interacting protein kinase 4 (Homo sapiens) (Q8NE63 whole entry): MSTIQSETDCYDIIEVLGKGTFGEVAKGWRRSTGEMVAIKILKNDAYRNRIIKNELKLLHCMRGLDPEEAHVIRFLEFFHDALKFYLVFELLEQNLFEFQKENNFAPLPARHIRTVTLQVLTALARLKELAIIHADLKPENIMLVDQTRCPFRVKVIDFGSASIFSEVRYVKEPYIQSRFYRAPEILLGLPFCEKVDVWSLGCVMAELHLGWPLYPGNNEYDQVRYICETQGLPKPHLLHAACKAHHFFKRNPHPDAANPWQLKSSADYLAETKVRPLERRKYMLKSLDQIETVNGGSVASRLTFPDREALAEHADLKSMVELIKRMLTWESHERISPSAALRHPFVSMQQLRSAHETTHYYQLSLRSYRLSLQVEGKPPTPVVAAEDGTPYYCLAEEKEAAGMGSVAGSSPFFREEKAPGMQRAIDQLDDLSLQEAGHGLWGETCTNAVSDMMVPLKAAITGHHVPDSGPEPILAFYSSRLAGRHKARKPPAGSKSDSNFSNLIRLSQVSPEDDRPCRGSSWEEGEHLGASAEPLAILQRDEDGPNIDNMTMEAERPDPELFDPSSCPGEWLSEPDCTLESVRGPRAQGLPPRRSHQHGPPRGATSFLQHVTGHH

[9] = biological target: NUAK family SNF1-like kinase 1 (Homo sapiens) (UniProt O60285); assay: Inhibition of recombinant human ARK5 (2 to end residues) assessed as residual activity at 10 uM using KKKVSRSGLYRSPSMPENLNRPR as substrate measured after 40 mins in presence of [gamma33P]ATP by scintillation counting method
[10] = biological target: Serine/threonine-protein kinase pim-3 (Homo sapiens) (UniProt Q86V86); assay: Inhibition of recombinant human Pim3 (2 to end residues) assessed as residual activity at 10 uM using RSRHSSYPAGT as substrate measured after 40 mins in presence of [gamma33P]ATP by scintillation counting method
[11] = biological target: Phosphatidylinositol 3-kinase C2 domain-containing subunit gamma (Homo sapiens) (UniProt O75747); assay: Inhibition of recombinant human PI3KC2gamma (468 to 1203 residues) assessed as residual activity at 10 uM using phosphatidylinositol as substrate measured after 40 mins by HTRF assay
[12] = biological target: SRSF protein kinase 1 (Homo sapiens) (UniProt Q96SB4); assay: Inhibition of human SRPK1 (2 to end residues) using RSRSRSRSRSRSRSR as substrate measured after 40 mins in presence of [gamma33P]ATP by scintillation counting method; parameters: scale not given: the % may be the effect or the level left
Homo sapiens [13] = species: Homo sapiens; assay: Inhibition of recombinant human ARAF Y301D/Y302D mutant (273 to end residues) assessed as residual activity at 10 uM using myelin basic protein as substrate measured after 40 mins in presence of [gamma33P]ATP by scintillation counting method
[14] = biological target: Interferon-induced, double-stranded RNA-activated protein kinase (Homo sapiens) (UniProt P19525); assay: Inhibition of recombinant human PKR (252 to end residues) assessed as residual activity at 10 uM using RSRSRSRSRSRSRSR as substrate measured after 40 mins in presence of [gamma33P]ATP by scintillation counting method
[15] = biological target: Glycogen synthase kinase-3 alpha (Homo sapiens) (UniProt P49840); assay: Inhibition of recombinant human GSK3alpha (2 to end residues) assessed as residual activity at 10 uM using phospho GS2 peptide as substrate measured after 40 mins in presence of [gamma33P]ATP by scintillation counting method
[16] = biological target: Serine/threonine-protein kinase Chk1 (Homo sapiens) (UniProt O14757); assay: Inhibition of recombinant full length human CHK1 assessed as residual activity at 10 uM using KKKVSRSGLYRSPSMPENLNRPR as substrate measured after 40 mins in presence of [gamma33P]ATP by scintillation counting method
[17] = biological target: Cyclin-dependent kinase-like 2 (Homo sapiens) (UniProt Q92772); assay: Inhibition of human CDKL2 assessed as residual activity at 10 uM by radiometric method
[18] = test system: Eukaryotic elongation factor 2 kinase (Homo sapiens), O00418 [H23R]; assay: Inhibition of recombinant human EEF2K H23R mutant (2 to end residues) assessed as residual activity at 10 uM using RKKFGESEKTKTKEFL as substrate measured after 40 mins in presence of [gamma33P]ATP by scintillation counting method
Chain of Eukaryotic elongation factor 2 kinase (Homo sapiens), O00418 [H23R] (O00418 whole entry H23R): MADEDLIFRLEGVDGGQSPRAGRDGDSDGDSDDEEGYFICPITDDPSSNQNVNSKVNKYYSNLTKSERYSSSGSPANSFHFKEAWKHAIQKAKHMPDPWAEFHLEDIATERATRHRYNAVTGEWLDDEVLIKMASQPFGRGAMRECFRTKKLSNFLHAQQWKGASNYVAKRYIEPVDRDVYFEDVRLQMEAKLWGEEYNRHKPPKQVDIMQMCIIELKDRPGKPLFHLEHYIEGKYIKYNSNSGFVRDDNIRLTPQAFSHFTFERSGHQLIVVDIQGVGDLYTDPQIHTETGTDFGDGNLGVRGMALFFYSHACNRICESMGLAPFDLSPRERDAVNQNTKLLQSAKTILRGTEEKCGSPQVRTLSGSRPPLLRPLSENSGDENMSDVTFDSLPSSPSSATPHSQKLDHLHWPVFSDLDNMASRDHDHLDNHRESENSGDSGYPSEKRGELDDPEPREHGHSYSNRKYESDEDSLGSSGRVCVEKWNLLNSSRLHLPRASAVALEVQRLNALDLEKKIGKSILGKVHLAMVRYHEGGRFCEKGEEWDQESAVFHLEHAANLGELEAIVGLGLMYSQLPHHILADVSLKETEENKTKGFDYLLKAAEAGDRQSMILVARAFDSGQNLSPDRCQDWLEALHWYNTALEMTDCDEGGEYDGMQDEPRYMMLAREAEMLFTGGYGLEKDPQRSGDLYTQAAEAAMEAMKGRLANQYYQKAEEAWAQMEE

SW-620 = assay: Induction of apoptosis in human SW620 cells assessed as viable cells at 50 nM measured after 48 hrs by Annexin V-FITC/propidium iodide staining-based flow cytometry (reference value: 94.7%); format: functional; conditions: SW-620, 48 h, read-out: Activity
[19] = biological target: Tyrosine-protein kinase HCK (Homo sapiens) (UniProt P08631); assay: Inhibition of recombinant human HCK (230 to 497 residues) assessed as residual activity at 10 uM using Cdc2 peptide as substrate measured after 40 mins in presence of [gamma33P]ATP by scintillation counting method
Chain of Tyrosine-protein kinase HCK (Homo sapiens) (P08631 2-526 limits assumed): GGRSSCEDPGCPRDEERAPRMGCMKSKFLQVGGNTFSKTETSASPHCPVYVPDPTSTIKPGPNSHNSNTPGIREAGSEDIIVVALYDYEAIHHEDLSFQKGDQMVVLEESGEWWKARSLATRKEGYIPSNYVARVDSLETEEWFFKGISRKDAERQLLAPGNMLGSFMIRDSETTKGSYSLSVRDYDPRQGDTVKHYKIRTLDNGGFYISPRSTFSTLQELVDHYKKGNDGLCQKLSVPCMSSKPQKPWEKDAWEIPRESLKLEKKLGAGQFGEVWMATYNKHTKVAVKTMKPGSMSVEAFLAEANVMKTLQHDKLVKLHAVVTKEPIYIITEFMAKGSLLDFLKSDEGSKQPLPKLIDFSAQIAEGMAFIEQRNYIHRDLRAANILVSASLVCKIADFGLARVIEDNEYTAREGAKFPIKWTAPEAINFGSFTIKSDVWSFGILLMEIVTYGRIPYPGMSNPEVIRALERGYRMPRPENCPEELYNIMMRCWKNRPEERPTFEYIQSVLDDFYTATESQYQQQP

Mus musculus = species: Mus musculus; assay: Inhibition of recombinant full-length mouse PI3K p110alpha/p85alpha E545K mutant assessed as residual activity at 10 uM using phosphatidylinositol-4, 5-bisphosphate as substrate measured after 40 mins by HTRF assay
[20] = biological target: Dual specificity tyrosine-phosphorylation-regulated kinase 1B (Homo sapiens) (UniProt Q9Y463); assay: Inhibition of recombinant full-length human DYRK1B assessed as residual activity at 10 uM using RRRFRPASPLRGPPK as substrate measured after 40 mins in presence of [gamma33P]ATP by scintillation counting method
Chain of Dual specificity tyrosine-phosphorylation-regulated kinase 1B (Homo sapiens) (Q9Y463 whole entry, looked up): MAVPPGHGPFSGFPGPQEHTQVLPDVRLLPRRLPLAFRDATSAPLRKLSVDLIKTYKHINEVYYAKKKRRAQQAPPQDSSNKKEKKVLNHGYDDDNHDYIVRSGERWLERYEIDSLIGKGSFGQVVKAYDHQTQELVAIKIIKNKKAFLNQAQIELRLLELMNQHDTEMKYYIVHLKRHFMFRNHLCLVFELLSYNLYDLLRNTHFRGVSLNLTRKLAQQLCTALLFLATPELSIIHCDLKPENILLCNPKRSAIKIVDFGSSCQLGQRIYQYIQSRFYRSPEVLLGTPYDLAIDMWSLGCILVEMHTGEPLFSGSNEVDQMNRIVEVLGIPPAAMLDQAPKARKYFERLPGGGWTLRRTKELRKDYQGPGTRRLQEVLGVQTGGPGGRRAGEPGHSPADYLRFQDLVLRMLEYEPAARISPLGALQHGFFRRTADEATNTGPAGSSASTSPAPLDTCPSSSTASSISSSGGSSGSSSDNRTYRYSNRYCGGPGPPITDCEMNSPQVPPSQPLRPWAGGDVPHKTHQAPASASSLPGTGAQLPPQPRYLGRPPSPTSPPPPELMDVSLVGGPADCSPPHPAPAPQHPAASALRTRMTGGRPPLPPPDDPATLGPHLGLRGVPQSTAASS

[21] = biological target: Activin receptor type-1-like (Homo sapiens) (UniProt P37023); assay: Inhibition of recombinant human ALK1 (142 to end residues) assessed as residual activity at 10 uM using casein as substrate measured after 40 mins in presence of [gamma33P]ATP by scintillation counting method
Chain of Activin receptor type-1-like (Homo sapiens) (P37023 whole entry): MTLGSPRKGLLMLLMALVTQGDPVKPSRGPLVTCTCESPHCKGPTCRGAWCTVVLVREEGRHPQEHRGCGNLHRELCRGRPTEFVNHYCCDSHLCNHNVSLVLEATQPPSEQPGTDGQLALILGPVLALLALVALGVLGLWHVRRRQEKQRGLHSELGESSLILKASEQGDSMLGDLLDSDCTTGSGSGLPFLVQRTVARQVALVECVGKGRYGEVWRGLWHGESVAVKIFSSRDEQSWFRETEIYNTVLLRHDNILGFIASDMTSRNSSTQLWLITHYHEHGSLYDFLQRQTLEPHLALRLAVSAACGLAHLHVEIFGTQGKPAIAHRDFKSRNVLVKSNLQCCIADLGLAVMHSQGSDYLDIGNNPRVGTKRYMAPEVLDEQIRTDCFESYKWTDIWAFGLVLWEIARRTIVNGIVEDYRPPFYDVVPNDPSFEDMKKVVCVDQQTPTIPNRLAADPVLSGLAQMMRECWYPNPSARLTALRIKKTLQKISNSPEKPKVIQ

[22] = biological target: Proto-oncogene tyrosine-protein kinase receptor Ret (Homo sapiens) (UniProt P07949); assay: Inhibition of human Ret (658 to end residues) using KKKSPGEYVNIEFG as substrate measured after 40 mins in presence of [gamma33P]ATP by scintillation counting method; parameters: scale not given: the % may be the effect or the level left

Cc1cc(C)c(CNc2nc(Cl)nc3c2ncn3C2CCCC2)c(=O)[nH]1
Activity (Homo sapiens [1]): 102%
Activity [2]: Non-Toxic
Activity [3]: 106%
Activity [4]: 95.5%
Activity [5]: 99.5%
Activity [6]: 110%
Activity [7]: 89.5%
Activity [8]: 110%
Activity [9]: 108%
Activity [10]: 107%
Activity [11]: 100%
Activity [12]: 101%
Activity (Homo sapiens [13]): 122%
Activity [14]: 109%
Activity [15]: 102%
Activity [16]: 106%
Activity [17]: 131%
Activity [18]: 104%
viability at 0.05 µM (SW-620): 83.4%
Activity [19]: 106%
Activity (Mus musculus): 99%
Activity [20]: 100%
Activity [21]: 98%
Activity [22]: 100%
